{"source": "patent US10266526B2", "about": "“Substituted 1,2,3-triazoles as SMYD inhibitors for treating cancer” (EPIZYME, INC., priority 2014, dated 2019)", "note": "pIC50: −log10 of the molar value."}
{"molecular_target": "SMYD3 (Homo sapiens (Human), UniProt Q9H7B4)", "sequence (Q9H7B4 whole entry)": "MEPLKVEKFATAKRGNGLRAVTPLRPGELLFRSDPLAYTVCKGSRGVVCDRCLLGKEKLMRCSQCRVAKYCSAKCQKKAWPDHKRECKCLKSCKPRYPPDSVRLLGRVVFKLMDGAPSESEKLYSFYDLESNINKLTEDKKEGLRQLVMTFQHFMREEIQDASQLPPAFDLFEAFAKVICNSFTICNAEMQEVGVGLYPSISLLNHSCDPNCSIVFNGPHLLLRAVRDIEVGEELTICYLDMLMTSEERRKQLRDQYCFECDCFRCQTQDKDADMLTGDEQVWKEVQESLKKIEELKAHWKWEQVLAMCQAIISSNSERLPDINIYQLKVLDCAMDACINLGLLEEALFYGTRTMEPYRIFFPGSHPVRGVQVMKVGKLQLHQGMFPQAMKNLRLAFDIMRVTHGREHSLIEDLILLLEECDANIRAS", "assay": "SMYD3 biochemical assay (SMYD3 enzyme assay on MEKK2 protein substrate, 3H-SAM scintillation proximity assay)", "conditions": "read-out: SMYD3 Biochem IC50", "method_in_brief": "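Native full-length human SMYD3, expressed in E. coli, was preincubated with compound for 30 min at room temperature in 25 mM Tris-Cl pH 8.0, 1 mM TCEP, 0.005% BSG and 0.005% Tween 20. ³H-SAM plus GST-MEKK2 then started the reaction. It was stopped with unlabeled SAM (100 uM final), and methylated MEKK2 was read by SPA.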"}
{"smiles": "CC(NC(=O)c1ccn(C)n1)C1CCN(C(=O)[C@H](C)N)CC1", "note": "(stereo partly drawn) [compound 259, N-(1-(1-(L-alanyl)piperidin-4-yl)ethyl)-1-methyl-1H-pyrazole-3-carboxamide]", "pIC50": "< 4.00"}
{"smiles": "CC(NC(=O)c1cc(C(C)(C)C)nn1C)C1CCN(C(=O)[C@H](C)N)CC1", "note": "(stereo partly drawn) [compound 260, N-(1-(1-(L-alanyl)piperidin-4-yl)ethyl)-3-(tert-butyl)-1-methyl-1H-pyrazole-5-carboxamide]", "pIC50": "< 4.00"}
{"smiles": "COc1cncc(C(=O)NC(C)C2CCN(C(=O)[C@H](C)N)CC2)n1", "note": "(stereo partly drawn) [compound 261, N-(1-(1-(L-alanyl)piperidin-4-yl)ethyl)-6-methoxypyrazine-2-carboxamide]", "pIC50": "< 4.00"}
{"smiles": "CC(NC(=O)[C@H]1CC[C@H](N)CC1)C1CCN(C(=O)[C@H](C)N)CC1", "note": "(stereo partly drawn) [compound 262, (1r,4S)-N-(1-(1-(L-alanyl)piperidin-4-yl)ethyl)-4-aminocyclohexane-1-carboxamide]", "pIC50": "< 4.00"}
{"smiles": "CC(NC(=O)c1ccc(Cl)cc1C(F)(F)F)C1CCN(C(=O)[C@H](C)N)CC1", "note": "(stereo partly drawn) [compound 263, N-(1-(1-(L-alanyl)piperidin-4-yl)ethyl)-4-chloro-2-(trifluoromethyl)benzamide]", "pIC50": "< 4.00"}
{"smiles": "NCCC(=O)N[C@H]1CC[C@H](NC(=O)c2cc[n+]([O-])cc2)CC1", "note": "[compound 264, 4-(((1r,4r)-4-(3-aminopropanamido)cyclohexyl)carbamoyl)pyridine 1-oxide]", "pIC50": "< 4.00"}
{"smiles": "CC(NC(=O)c1cccc(F)n1)C1CCN(C(=O)[C@H](C)N)CC1", "note": "(stereo partly drawn) [compound 265, N-(1-(1-(L-alanyl)piperidin-4-yl)ethyl)-6-fluoropicolinamide]", "pIC50": "< 4.00"}
{"smiles": "CC(NC(=O)c1cccc2c1OC(F)(F)O2)C1CCN(C(=O)[C@H](C)N)CC1", "note": "(stereo partly drawn) [compound 266, N-(1-(1-(L-alanyl)piperidin-4-yl)ethyl)-2,2-difluorobenzo[d][1,3]dioxole-4-carboxamide]", "pIC50": "< 4.00"}
{"smiles": "CC(NC(=O)c1ccncc1F)C1CCN(C(=O)[C@H](C)N)CC1", "note": "(stereo partly drawn) [compound 267, N-(1-(1-(L-alanyl)piperidin-4-yl)ethyl)-3-fluoroisonicotinamide]", "pIC50": "< 4.00"}
{"smiles": "CC(NC(=O)c1c[nH]c2ccccc12)C1CCN(C(=O)[C@H](C)N)CC1", "note": "(stereo partly drawn) [compound 268, N-(1-(1-(L-alanyl)piperidin-4-yl)ethyl)-1H-indole-3-carboxamide]", "pIC50": "< 4.00"}
{"smiles": "N[C@H]1CC[C@H](NC(=O)c2ncccn2)CC1", "note": "[compound 269, N-((1r,4r)-4-aminocyclohexyl)pyrimidine-2-carboxamide]", "pIC50": "< 4.00"}
{"smiles": "NCCC(=O)N[C@H]1CC[C@H](NC(=O)c2ccc(O)nn2)CC1", "note": "[compound 270]", "pIC50": "< 4.00"}
{"smiles": "N[C@H]1CC[C@H](NC(=O)c2ccc(O)nn2)CC1", "note": "[compound 271, N-((1r,4r)-4-aminocyclohexyl)-6-hydroxypyridazine-3-carboxamide]", "pIC50": "< 4.00"}
{"smiles": "NCCC(=O)N[C@H]1CC[C@H](NC(=O)c2ccc3cc[nH]c3c2)CC1", "note": "[compound 272, N-((1r,4r)-4-(3-aminopropanamido)cyclohexyl)-1H-indole-6-carboxamide]", "pIC50": 4.43}
{"smiles": "Cc1c(C(=O)N[C@H]2CC[C@H](N)CC2)nnn1-c1ccccc1", "note": "[compound 273, N-((1r,4r)-4-aminocyclohexyl)-5-methyl-1-phenyl-1H-1,2,3-triazole-4-carboxamide]", "pIC50": "< 4.00"}
{"smiles": "Cc1cc(C)c(C(=O)NC(C)C2CCN(C(=O)[C@H](C)N)CC2)c(=O)[nH]1", "note": "(stereo partly drawn) [compound 274, N-(1-(1-(L-alanyl)piperidin-4-yl)ethyl)-4,6-dimethyl-2-oxo-1,2-dihydropyridine-3-carboxamide]", "pIC50": "< 4.00"}
{"smiles": "Cn1ncc2ccc(C(=O)N[C@H]3CC[C@H](N)CC3)cc21", "note": "[compound 275, N-((1r,4r)-4-aminocyclohexyl)-1-methyl-1H-indazole-6-carboxamide]", "pIC50": "< 4.00"}
{"smiles": "COc1ccc2cc(C(=O)N[C@H]3CC[C@H](N)CC3)ccc2c1", "note": "[compound 276, N-((1r,4r)-4-aminocyclohexyl)-6-methoxy-2-naphthamide]", "pIC50": "< 4.00"}
{"smiles": "N[C@H]1CC[C@H](NC(=O)c2cc(=O)c3ccccc3o2)CC1", "note": "[compound 277, N-((1r,4r)-4-aminocyclohexyl)-4-oxo-4H-chromene-2-carboxamide]", "pIC50": "< 4.00"}
{"smiles": "N[C@H]1CC[C@H](NC(=O)c2ccc(-n3cnnc3)cc2)CC1", "note": "[compound 278, N-((1r,4r)-4-aminocyclohexyl)-4-(4H-1,2,4-triazol-4-yl)benzamide]", "pIC50": "< 4.00"}
{"smiles": "NCCC(=O)N[C@H]1CC[C@H](NC(=O)c2ccc(N3CCCC3)cc2)CC1", "note": "[compound 279, N-((1r,4r)-4-(3-aminopropanamido)cyclohexyl)-4-(pyrrolidin-1-yl)benzamide]", "pIC50": 4.36}
{"smiles": "N[C@H]1CC[C@H](NC(=O)c2ccc(N3CCCC3)cc2)CC1", "note": "[compound 280, N-((1r,4r)-4-aminocyclohexyl)-4-(pyrrolidin-1-yl)benzamide]", "pIC50": 4.32}
{"smiles": "NCCC(=O)N[C@H]1CC[C@H](NC(=O)c2ccc3ncsc3c2)CC1", "note": "[compound 281, N-((1r,4r)-4-(3-aminopropanamido)cyclohexyl)benzo[d]thiazole-6-carboxamide]", "pIC50": 4.54}
{"smiles": "CC(NC(=O)c1ccc2[nH]ccc2c1)C1CCN(C(=O)[C@H](C)N)CC1", "note": "(stereo partly drawn) [compound 283, N-(1-(1-(L-alanyl)piperidin-4-yl)ethyl)-1H-indole-5-carboxamide]", "pIC50": "< 4.00"}
{"smiles": "CC(NC(=O)c1ccc2c(c1)OC(F)(F)O2)C1CCN(C(=O)[C@H](C)N)CC1", "note": "(stereo partly drawn) [compound 284, N-(1-(1-(L-alanyl)piperidin-4-yl)ethyl)-2,2-difluorobenzo[d][1,3]dioxole-5-carboxamide]", "pIC50": "< 4.00"}
{"smiles": "N[C@H]1CC[C@H](NC(=O)c2ccc3c(c2)OC(F)(F)O3)CC1", "note": "[compound 285, N-((1r,4r)-4-aminocyclohexyl)-2,2-difluorobenzo[d][1,3]dioxole-5-carboxamide]", "pIC50": 4.16}
{"smiles": "N[C@H]1CC[C@H](NC(=O)c2ccc3c(c2)no[n+]3[O-])CC1", "note": "[compound 286, 5-(((1r,4r)-4-aminocyclohexyl)carbamoyl)benzo[c][1,2,5]oxadiazole 1-oxide]", "pIC50": "< 4.00"}
{"smiles": "N[C@H]1CC[C@H](NC(=O)c2ccc3nonc3c2)CC1", "note": "[compound 287, N-((1r,4r)-4-aminocyclohexyl)benzo[c][1,2,5]oxadiazole-5-carboxamide]", "pIC50": "< 4.00"}
{"smiles": "NCCC(=O)N[C@H]1CC[C@H](NC(=O)c2cnccc2N)CC1", "note": "[compound 288, 4-amino-N-((1r,4r)-4-(3-aminopropanamido)cyclohexyl)nicotinamide]", "pIC50": "< 4.00"}
{"smiles": "Nc1ccncc1C(=O)N[C@H]1CC[C@H](N)CC1", "note": "[compound 289, 4-amino-N-((1r,4r)-4-aminocyclohexyl)nicotinamide]", "pIC50": "< 4.00"}
{"smiles": "NCCC(=O)N[C@H]1CC[C@H](NC(=O)c2cccc3[nH]ccc23)CC1", "note": "[compound 290, N-((1r,4r)-4-(3-aminopropanamido)cyclohexyl)-1H-indole-4-carboxamide]", "pIC50": "< 4.00"}
{"smiles": "N[C@H]1CC[C@H](NC(=O)c2cccc3[nH]ccc23)CC1", "note": "[compound 291, N-((1r,4r)-4-aminocyclohexyl)-1H-indole-4-carboxamide]", "pIC50": "< 4.00"}
{"smiles": "N[C@H]1CC[C@H](NC(=O)c2ccnc(O)c2)CC1", "note": "[compound 292, N-((1r,4r)-4-aminocyclohexyl)-2-hydroxyisonicotinamide]", "pIC50": "< 4.00"}
{"smiles": "NCCC(=O)N[C@H]1CC[C@H](NC(=O)c2ccc(O)nc2)CC1", "note": "[compound 294, N-((1r,4r)-4-(3-aminopropanamido)cyclohexyl)-6-hydroxynicotinamide]", "pIC50": "< 4.00"}
{"smiles": "N[C@H]1CC[C@H](NC(=O)c2ccc(O)nc2)CC1", "note": "[compound 295, N-((1r,4r)-4-aminocyclohexyl)-6-hydroxynicotinamide]", "pIC50": "< 4.00"}
{"smiles": "CC(NC(=O)c1ccccn1)C1CCN(C(=O)[C@H](C)N)CC1", "note": "(stereo partly drawn) [compound 296, N-(1-(1-(L-alanyl)piperidin-4-yl)ethyl)picolinamide]", "pIC50": "< 4.00"}
{"smiles": "NCCC(=O)NC1CCC(NC(=O)c2ccccn2)CC1", "note": "(stereo not drawn) [compound 297, N-(4-(3-aminopropanamido)cyclohexyl)picolinamide]", "pIC50": 4.35}
{"smiles": "N[C@H]1CC[C@H](NC(=O)c2cnccn2)CC1", "note": "[compound 298, N-((1r,4r)-4-aminocyclohexyl)pyrazine-2-carboxamide]", "pIC50": "< 4.00"}
{"smiles": "Cc1cccc(Cn2nc(C(C)(C)C)cc2C(=O)NC(C)C2CCN(C(=O)[C@H](C)N)CC2)c1", "note": "(stereo partly drawn) [compound 299, N-(1-(1-(L-alanyl)piperidin-4-yl)ethyl)-3-(tert-butyl)-1-(3-methylbenzyl)-1H-pyrazole-5-carboxamide]", "pIC50": "< 4.00"}
{"smiles": "Cc1cccc2cc(C(=O)NC(C)C3CCN(C(=O)[C@H](C)N)CC3)[nH]c12", "note": "(stereo partly drawn) [compound 300, N-(1-(1-(L-alanyl)piperidin-4-yl)ethyl)-7-methyl-1H-indole-2-carboxamide]", "pIC50": "< 4.00"}
{"smiles": "COc1cccc(C(=O)NC(C)C2CCN(C(=O)[C@H](C)N)CC2)n1", "note": "(stereo partly drawn) [compound 301, N-(1-(1-(L-alanyl)piperidin-4-yl)ethyl)-6-methoxypicolinamide]", "pIC50": "< 4.00"}
{"smiles": "COc1cnc(C(=O)NC(C)C2CCN(C(=O)[C@H](C)N)CC2)cn1", "note": "(stereo partly drawn) [compound 302, N-(1-(1-(L-alanyl)piperidin-4-yl)ethyl)-5-methoxypyrazine-2-carboxamide]", "pIC50": "< 4.00"}
{"smiles": "NCCC(=O)N[C@H]1CC[C@H](NC(=O)[C@H]2CC[C@H](N)CC2)CC1", "note": "[compound 303, (1r,4r)-4-amino-N-((1r,4r)-4-(3-aminopropanamido)cyclohexyl)cyclohexane-1-carboxamide]", "pIC50": "< 4.00"}
{"smiles": "N[C@H]1CC[C@H](NC(=O)[C@H]2CC[C@H](N)CC2)CC1", "note": "[compound 304, (1r,4r)-4-amino-N-((1r,4r)-4-aminocyclohexyl)cyclohexane-1-carboxamide]", "pIC50": "< 4.00"}
{"smiles": "CC(NC(=O)[C@@H]1C[C@H](F)CN1)C1CCN(C(=O)[C@H](C)N)CC1", "note": "(stereo partly drawn) [compound 305, (2S,4S)-N-(1-(1-(L-alanyl)piperidin-4-yl)ethyl)-4-fluoropyrrolidine-2-carboxamide]", "pIC50": 4.25}
